Assays:
[1] = test system: murine bone marrow cells; assay: .THETA.-antigen expression on murine bone marrow cells (T-lymphocyte precursor differentiation); assay type: cell-based, CBA strain mice; parameters: .THETA.-antigen expression on murine bone marrow cells: unit not given here; settings: for .THETA.-antigen expression on murine bone marrow cells: Table 1; for Percent of murine bone marrow cells expressing .THETA.-antigen: Table 5
Description: Differentiation of murine T-lymphocyte precursors was studied by the enumeration of cells expressing early surface differentiation marker .THETA.-antigen. Bone marrow cells were obtained from CBA strain mice killed by cervical dislocation. Cells were washed from femur bones with Hank's balanced salt solution and washed 3 times with RPM 1-1640 medium by centrifugation at 400 xg. Peptides at desired concentrations were incubated with 1×10^6 /ml of obtained cells for 1 hour at 37° C. Theta-antigen (".THETA.-antigen") expression has been determined with antibrain antibodies in a cytotoxicity assay using complement-dependent cell lysis (Terasaki et al., "Microdroplet Lymphocyte Cytotoxicity Test. Manual of Tissue Typing Techniques," National Institutes of Health, Bethesda, Md., pp 50-55, 1972). Dead cells were counted microscopically after eosin staining. […] Its activity was much stronger than that of the reference thymogen peptide.
Differentiation of murine T-lymphocyte precursors was studied by the enumeration of cells expressing early surface differentiation marker--.THETA.-antigen which is an analog of the Thy-1 lymphocyte differentiation antigen. Bone marrow cells were obtained from CBA strain mice killed by cervical dislocation. Cells were washed from femur bones with Hank's balanced salt solution and washed 3 times with RPMI-1640 medium by centrifugation at 400 xg. Peptides at desired concentrations were incubated with 1×10^6 /ml of obtained cells for 1 hour at 37° C. .THETA.-antigen expression were determined with antibrain antibodies in a cytotoxicity assay using complement-dependent cell lysis (Terasaki et al., 1972). Dead cells were counted microscopically after eosin staining untreated bone marrow cells served as a negative control, and murine thymocytes as a positive control.

[2] = test system: rats; assay: Acute toxicity, single intramuscular dose, rats; assay type: in vivo; settings: single 500.0 mg/kg intramuscular, 14 days
Description: (§1) To illustrate this point and in preparation for clinical studies, acute and sub-acute toxicity studies were conducted in animals with Bestim according to conditions of good-laboratory practices. Bestim, prepared as a sterile lyophitized powder in ampoules, was dissolved in sterile 0.9% NaCl solution and injected intramuscularly in all experiments.
Acute toxicity: Rodents (mice and rats) and dogs were randomized into groups of equal numbers of males and females. Animals were inspected daily for 14 days after a single dose of Bestim (intramuscular):
Body weight, overall appearance and behavior were evaluated each day and, at the end of two weeks, macroscopic and histopathological examinations of the internal organs (heart, lungs, pleural and peritoneal cavities, muscles, stomach, small and large intestine, liver, spleen, pancreas, kidneys, bladder, thyroid, brain, skin and testes/ovaries) of all animals were conducted.

[3] = test system: patients with disseminated cancer; assay: Study in patients with disseminated cancer after anticancer therapy; assay type: in vivo, human; settings: for Adhesion (%) / B-cells / B-cells (%) / Blastransformation, LPS / Blastransformation, PHA / Blastransformation, spontaneous / CD3 / CD3 (%) / CD4 / CD4 (%) / CD4/CD8 / CD8 / CD8 (%) / Cationic proteins / Chemiluminescence, luminol (induced) / Chemiluminescence, luminol (spontaneous) / IgA / IgG / IgM / Myeloperoxidase activity / NBT reduction test / NK activity (%) / NK-cells / NK-cells (%) / Stimulation index, LPS / Stimulation index, PHA: cancer patients
Description: Preliminary studies were conducted to characterize the immunomodulatory properties of Bestim in human subjects. The protocol for the human subjects studies were reviewed and approved by a Hospital Committee (Moscow Hospital N-24) and informed consent was obtained from all subjects. All 62 patients received by intramuscular injection 0.1 mg of Bestim dissolved in 1.5 to 2.0 ml of sterile saline, one injection per day for 5 days. Patients participating in the clinical trials were from 2 groups:
The first group consisted of 34 patients with disseminated cancer (29 with colon cancer, 2 with primary brain gliomas, 2 with stage III gastric cancer, 1 with stage IIIb breast cancer). These patients received Bestim therapy after standard anticancer therapy which included surgical treatment and chemotherapy with 5-fluorouracil. It should be noted here that the goal of Bestim therapy in these patients was not to treat the tumor but to correct the immunodeficiency that accompanied this disease and which occurs as a consequence of anticancer therapy. Placebo (saline injections) were administered to 14 subjects.
Laboratory measurements (data in Table 8 to 10) were performed one day before and compared to values obtained three days after injection of Bestim.

[4] = test system: viral hepatitis; assay: Clinical trials in viral hepatitis; assay type: in vivo, human; settings: trials in progress
[5] = test system: rats; assay: Subacute toxicity, repeated intramuscular injection, rats; assay type: in vivo
Description: as §1
Subacute Toxicity Studies: In a second set of experiments, Bestim was administered for longer durations, accordingly:
rats: 1 mg/kg and 100 mg/kg, administered intramuscularly daily for 3 months and for 6 months

N[C@@H](CCC(=O)N[C@@H](Cc1c[nH]c2ccccc12)C(=O)O)C(=O)O [Bestim, γ-L-glutamyl-L-tryptophan]
.THETA.-antigen expression on murine bone marrow cells ([1]; peptide 0.0001 μg/ml, 1 hour 37° C.): 14 ± 1.5
.THETA.-antigen expression on murine bone marrow cells ([1]; peptide 0.001 μg/ml): 29 ± 2.4
.THETA.-antigen expression on murine bone marrow cells ([1]; peptide 0.01 μg/ml): 30 ± 2.8
.THETA.-antigen expression on murine bone marrow cells ([1]; peptide 0.1 μg/ml): 34 ± 1.9
.THETA.-antigen expression on murine bone marrow cells ([1]; peptide 1.0 μg/ml): 49 ± 1.2
.THETA.-antigen expression on murine bone marrow cells ([1]; peptide 10 μg/ml): 48 ± 0.8
.THETA.-antigen expression on murine bone marrow cells ([1]; peptide 100 μg/ml): 47 ± 1.0
Percent of murine bone marrow cells expressing .THETA.-antigen ([1]; peptide 0.0001 μg/ml): 25%
Percent of murine bone marrow cells expressing .THETA.-antigen ([1]; peptide 0.001 μg/ml): 31%
Percent of murine bone marrow cells expressing .THETA.-antigen ([1]; peptide 0.01 μg/ml): 35%
Percent of murine bone marrow cells expressing .THETA.-antigen ([1]; peptide 0.1 μg/ml): 37%
Percent of murine bone marrow cells expressing .THETA.-antigen ([1]; peptide 1.0 μg/ml): 49%
Percent of murine bone marrow cells expressing .THETA.-antigen ([1]; peptide 10 μg/ml): 52%
Percent of murine bone marrow cells expressing .THETA.-antigen ([1]; peptide 100 μg/ml): 60%
potency relative to thymogen ([1]; dose-response analysis of Table 1 data): at least 500 fold
concentrations with immunostimulatory activity ([1]; preclinical studies, summary): sub-nanomolar concentrations
deaths [2]: No deaths were observed
general appearance, behavior, body weight, hematological, biochemical and physiological indices, macroscopic and histopathological examination of internal organs [2]: all within normal limits
patients who subjectively felt better and were improved in the physician's opinion ([3]; 30 out of 34 cancer patients, 0.1 mg i.m. per day for 5 days): 88%
patients with negative changes in immunological parameters ([3]; cancer patients N = 34): 9%
patients with no significant change in immunological parameters ([3]; cancer patients N = 34): 18%
patients with positive changes in immunological parameters ([3]; cancer patients N = 34): 73%
Adhesion (%) ([3]; Bestim After): 47.6 ± 5.7%
B-cells ([3]; Bestim After): 240 ± 90 10^6 cells/L
B-cells (%) ([3]; Bestim After): 7.1 ± 2.2%
Blastransformation, LPS ([3]; Bestim After): 2738 ± 305
Blastransformation, PHA ([3]; Bestim After): 21661 ± 5674
Blastransformation, spontaneous ([3]; Bestim After): 434 ± 73
CD3 ([3]; Bestim After): 1940 ± 234 10^6 cells/L
CD3 (%) ([3]; Bestim After): 70 ± 4%
CD4 ([3]; Bestim After): 923 ± 114 10^6 cells/L
CD4 (%) ([3]; Bestim After): 35 ± 2%
CD4/CD8 ([3]; Bestim After): 1.16 ± 0.09
CD8 ([3]; Bestim After): 757 ± 75 10^6 cells/L
CD8 (%) ([3]; Bestim After): 29 ± 2%
Cationic proteins ([3]; Bestim After): 52.4 ± 3.3 Units
Chemiluminescence, luminol (induced) ([3]; Bestim After): 5294 ± 789
Chemiluminescence, luminol (spontaneous) ([3]; Bestim After): 827 ± 299
IgA ([3]; Bestim After): 4.1 ± 0.7 g/L
IgG ([3]; Bestim After): 14.4 ± 1.0 g/L
IgM ([3]; Bestim After): 2.2 ± 0.4 g/L
Myeloperoxidase activity ([3]; Bestim After): 479 ± 97 Units
NBT reduction test ([3]; Bestim After): 160 ± 21 Units
NK activity (%) ([3]; Bestim After): 28 ± 1.5%
NK-cells ([3]; Bestim After): 267 ± 32 10^6 cells/L
NK-cells (%) ([3]; Bestim After): 12.0 ± 1.7%
Stimulation index, LPS ([3]; Bestim After): 7.4 ± 0.7
Stimulation index, PHA ([3]; Bestim After): 48.9 ± 10.3
Adhesion (%) ([3]; Bestim Before): 49.6 ± 5.9%
B-cells ([3]; Bestim Before): 152 ± 58 10^6 cells/L
B-cells (%) ([3]; Bestim Before): 5.0 ± 1.3%
Blastransformation, LPS ([3]; Bestim Before): 2328 ± 438
Blastransformation, PHA ([3]; Bestim Before): 5998 ± 1745
Blastransformation, spontaneous ([3]; Bestim Before): 373 ± 63
CD3 ([3]; Bestim Before): 1430 ± 183 10^6 cells/L
CD3 (%) ([3]; Bestim Before): 65 ± 4%
CD4 ([3]; Bestim Before): 582 ± 54 10^6 cells/L
CD4 (%) ([3]; Bestim Before): 28 ± 2%
CD4/CD8 ([3]; Bestim Before): 1.04 ± 0.08
CD8 ([3]; Bestim Before): 572 ± 53 10^6 cells/L
CD8 (%) ([3]; Bestim Before): 25 ± 2%
Cationic proteins ([3]; Bestim Before): 49.9 ± 5.9 Units
Chemiluminescence, luminol (induced) ([3]; Bestim Before): 6991 ± 2101
Chemiluminescence, luminol (spontaneous) ([3]; Bestim Before): 475 ± 141
IgA ([3]; Bestim Before): 4.5 ± 0.8 g/L
IgG ([3]; Bestim Before): 14.2 ± 1.0 g/L
IgM ([3]; Bestim Before): 1.9 ± 0.4 g/L
Myeloperoxidase activity ([3]; Bestim Before): 467 ± 87 Units
NBT reduction test ([3]; Bestim Before): 157 ± 19 Units
NK activity (%) ([3]; Bestim Before): 29 ± 1.3%
NK-cells ([3]; Bestim Before): 256 ± 44 10^6 cells/L
NK-cells (%) ([3]; Bestim Before): 13.4 ± 2.3%
Stimulation index, LPS ([3]; Bestim Before): 7.6 ± 0.6
Stimulation index, PHA ([3]; Bestim Before): 15.9 ± 4.5
signs and symptoms of viral hepatitis [4]: ameliorates the signs and symptoms of viral hepatitis
morphological appearance of all organs, macroscopic and histological ([5]; rats, 1 and 100 mg/kg i.m. daily for 3 and 6 months): normal
body weight ([5]; rats, both doses (1 and 100 mg/kg i.m. daily)): slight increase in body weight
tested dose relative to expected doses for therapeutic trials ([5]; repeated administration): ~100 fold
